Measured values as given in BindingDB's records for doi:10.1007/BF00173012 (Sandoz Pharma, 1994).
*1 amine or outer side, *2 acyl side, *3 side chain or, on linkers, in order; H or OH if unused. Where a SMILES comes first, the peptide text is derived from it. Bridges are numbered along the chain shown (N, C = ends). [ ]: non-standard residue; d: D form. The star is where a group is joined. ξ: configuration not given here. X3 = C[C@@H](C(=O)[*:2])N(Cc1ccc2ccccc2c1)[*:1]; Phe(4-Cl) = N[C@@H](Cc1ccc(Cl)cc1)C(=O)O; d2Nal = N[C@H](Cc1ccc2ccccc2c1)C(=O)O; dNMeF = CN[C@H](Cc1ccccc1)C(=O)O; dThr(3ξ) = CC(O)[C@@H](N)C(=O)O; NMeA = CN[C@@H](C)C(=O)O; dNMeA = CN[C@H](C)C(=O)O; ξF = NC(Cc1ccccc1)C(=O)O; Abu = CC[C@H](N)C(=O)O; X2 = CC(O)[C@H](CO)N*; Ahp = NCCCCCCC(=O)O; Bn = c1ccc(C*)cc1; ξC = NC(CS)C(=O)O

How the values were obtained:
[1] = biological target: T1, Somatostatin receptor type 5 (Rattus norvegicus, UniProt P30938)
T1 sequence (P30938 whole entry): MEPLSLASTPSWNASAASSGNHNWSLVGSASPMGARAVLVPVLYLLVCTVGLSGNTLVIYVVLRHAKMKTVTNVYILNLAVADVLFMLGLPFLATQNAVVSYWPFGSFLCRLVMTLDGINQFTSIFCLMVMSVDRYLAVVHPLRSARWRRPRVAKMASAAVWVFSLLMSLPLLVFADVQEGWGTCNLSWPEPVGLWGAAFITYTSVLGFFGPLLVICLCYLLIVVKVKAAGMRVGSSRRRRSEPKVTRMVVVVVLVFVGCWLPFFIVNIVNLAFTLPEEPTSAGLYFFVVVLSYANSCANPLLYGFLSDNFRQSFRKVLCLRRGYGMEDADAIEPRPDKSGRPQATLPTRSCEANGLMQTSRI

[2] = biological target: Somatostatin receptor type 4 (Mus musculus, UniProt P49660)
[3] = biological target: Somatostatin receptor type 3 (Mus musculus, UniProt P30935)
Somatostatin receptor type 3, sequence (P30935 whole entry): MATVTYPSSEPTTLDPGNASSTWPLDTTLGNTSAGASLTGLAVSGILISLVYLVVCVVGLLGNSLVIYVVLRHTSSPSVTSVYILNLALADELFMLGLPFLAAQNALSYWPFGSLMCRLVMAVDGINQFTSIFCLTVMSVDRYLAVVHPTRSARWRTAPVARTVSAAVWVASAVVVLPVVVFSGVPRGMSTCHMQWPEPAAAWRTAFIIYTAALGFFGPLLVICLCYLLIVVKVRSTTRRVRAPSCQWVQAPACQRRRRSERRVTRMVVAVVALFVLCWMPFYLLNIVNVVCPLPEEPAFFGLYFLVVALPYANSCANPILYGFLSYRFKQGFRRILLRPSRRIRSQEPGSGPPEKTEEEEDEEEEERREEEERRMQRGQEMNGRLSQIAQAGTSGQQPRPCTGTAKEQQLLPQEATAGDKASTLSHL

Somatostatin receptor type 4, sequence (P49660 whole entry): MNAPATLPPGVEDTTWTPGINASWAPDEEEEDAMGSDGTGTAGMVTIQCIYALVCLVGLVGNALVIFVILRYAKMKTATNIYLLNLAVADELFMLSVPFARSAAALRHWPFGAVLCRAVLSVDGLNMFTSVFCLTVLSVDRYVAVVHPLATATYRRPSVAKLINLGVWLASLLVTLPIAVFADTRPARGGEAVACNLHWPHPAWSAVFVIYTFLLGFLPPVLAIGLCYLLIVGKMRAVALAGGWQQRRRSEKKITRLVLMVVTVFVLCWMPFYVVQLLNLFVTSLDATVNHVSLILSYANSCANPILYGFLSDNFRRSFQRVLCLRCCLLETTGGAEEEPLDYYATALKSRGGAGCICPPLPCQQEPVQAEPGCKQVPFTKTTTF

Structure (SMILES) | Ki [1] | Ki [2] | Ki [3]
C[C@@H](O)[C@@H]1NC(=O)[C@H](CCCCN)NC(=O)[C@@H](Cc2c[nH]c3ccccc23)NC(=O)[C@H](Cc2ccccc2)NC(=O)[C@@H]2CCCN2C(=O)[C@H](Cc2ccccc2)NC1=O (cyclo(PF[dW]KTF)) | 3.23 nM | 1000 nM | –
CC(C)[C@H](NC(=O)[C@H](CCCCN)NC(=O)[C@@H](Cc1c[nH]c2ccccc12)NC(=O)[C@H](Cc1ccc(O)cc1)NC(=O)[C@H](C)NC(=O)[C@H](N)Cc1ccccc1)C(=O)N[C@@H](C)C(=O)N[C@H](Cc1ccc2ccccc2c1)C(N)=O [D-Phe-AIa-Tyr-D-Trp-Lys-Val-Ala-D-Nal-NH2] (H-[dF]AY[dW]KVA[d2Nal]-NH2) | 5.88 nM | 1000 nM | –
C[C@@H](Oc1ccccc1)[C@@H]1NC(=O)[C@H](CCCCN)NC(=O)[C@@H](Cc2c[nH]c3ccccc23)NC(=O)[C@H](Cc2ccccc2)NCCCCCCNC1=O [c[Aha-Phe-D-Trp-Lys-Thr(Bzl)]] | 51.3 nM | – | –
CC(C)[C@H](NC(=O)[C@H](CCCCN)NC(=O)[C@@H](Cc1c[nH]c2ccccc12)NC(=O)[C@H](Cc1ccc(O)cc1)NC(=O)[C@H](Cc1ccccc1)NC(=O)[C@H](N)Cc1ccccc1)C(=O)N[C@@H](Cc1ccccc1)C(=O)N[C@H](Cc1ccccc1)C(N)=O [D-Phe-Phe-Tyr-D-Trp-Lys-Val-Phe-D-Phe-NH2] (H-[dF]FY[dW]KVF[dF]-NH2) | 3.31 nM | 251 nM | –
CC(C)C1NC(=O)C(CCCCN)NC(=O)C(Cc2c[nH]c3ccccc23)NC(=O)C(Cc2ccc(O)cc2)NC(=O)C(NC(=O)C(N)Cc2ccccc2)CSSCC(C(=O)NC(Cc2c[nH]c3ccccc23)C(N)=O)NC1=O (stereo not given) [CAS_71306] (H-FCYWKVCW-NH2; disulfide 2-7; configuration not given here) | 1.58 nM | – | –
CC(CO)C(NC(=O)C1NC(=O)N[C@@H](Cc2ccc(O)cc2)C(=O)N[C@H](Cc2c[nH]c3ccccc23)C(=O)N[C@@H](CCCCN)C(=O)N[C@@H](C(C)CO)C(=O)NC(C(=O)N[C@@H](Cc2ccc3ccccc3c2)C(N)=O)SS1)C(N)=O (stereo partly drawn) [D-Nal-c[Cys-Tyr-D-Trp-Lys-Thr-Cys]-Thr-NH2] | 0.07 nM | – | –
CC(C)[C@H](NC(=O)[C@H](CCCCN)NC(=O)[C@@H](Cc1c[nH]c2ccccc12)NC(=O)[C@H](Cc1ccc(O)cc1)NC(=O)[C@H](C)NC(=O)[C@H](N)Cc1ccc2ccccc2c1)C(=O)N[C@@H](C)C(=O)N[C@H](C(N)=O)[C@@H](C)O [D-Nal-Ala-Tyr-D-Trp-Lys-Val-Ala-Thr-NH2] (H-[d2Nal]AY[dW]KVAT-NH2) | – | 1000 nM | –
CC(O)[C@H](CO)NC(=O)[C@@H]1CSSCC(NC(=O)C(N)Cc2ccccc2)C(=O)N[C@H](Cc2ccccc2)C(=O)N[C@H](Cc2c[nH]c3ccccc23)C(=O)N[C@H](CCCCN)C(=O)N[C@H](C(C)O)C(=O)N1 (stereo not given in full) (H-[ξF][ξC][dF][dW][dK][dThr(3ξ)]C-X2; disulfide 2-7) | 0.57 nM | – | –
CC(C)C1NC(=O)C(CCCCN)NC(=O)C(Cc2c[nH]c3ccccc23)NC(=O)C(Cc2ccc(O)cc2)NC(=O)C(C)N(C)C(=O)C(Cc2ccccc2)NC1=O (stereo not given) [CAS_3086456] | 5.49 nM | – | –
C[C@H](O)[C@H]1NC(=O)[C@H](CCCCN)NC(=O)[C@@H](Cc2c[nH]c3ccccc23)NC(=O)[C@@H](Cc2ccccc2)NC(=O)[C@@H](C)N(C)C(=O)[C@@H](Cc2ccccc2)N(C)C1=O [N-Methylcyclo(D-Ala-D-Phe-D-Trp-L-Lys-D-Thr-N-methyl-D-Phe-)] (cyclo(K[dT][dNMeF][dNMeA][dF][dW])) | 407 nM | 1000 nM | –
C[C@@H](O)[C@H](NC(=O)[C@H](Cc1ccccc1)NC(=O)[C@@H](NC(=O)[C@H](CCCCN)NC(=O)[C@@H](Cc1c[nH]c2ccccc12)NC(=O)[C@H](Cc1ccccc1)NC(=O)[C@H](Cc1ccccc1)NC(=O)[C@H](N)Cc1ccccc1)[C@@H](C)O)C(N)=O [CAS_133073-82-2] (H-[dF]FF[dW]KTFT-NH2) | – | 18.2 nM | 0.41 nM
CC(C)[C@H](NC(=O)[C@H](CCCCN)NC(=O)[C@@H](Cc1c[nH]c2ccccc12)NC(=O)[C@H](Cc1ccc(O)cc1)NC(=O)[C@H](C)NCc1ccc2ccccc2c1)C(=O)N[C@@H](C)C(=O)N[C@H](C(N)=O)[C@@H](C)O [D-Nal-Ala-Tyr-D-Trp-Lys-Val-Ala-Thr-NH2] (H-[X3]Y[dW]KVAT-NH2) | 145 nM | – | –
C[C@@H](O)[C@@H]1NC(=O)[C@H](CCCCN)NC(=O)[C@@H](Cc2c[nH]c3ccccc23)NC(=O)[C@H](Cc2ccccc2)NC(=O)[C@@H]2CSSCC(NC1=O)C(=O)NCCCCCCC(=O)N2 [(1R,4S,7S,10R,13S,16R)-4-[(R)-1-Hydroxyethyl]-7-(4-aminobutyl)-10-(1H-indole-3-ylmethyl)-13-benzyl-28,29-dithia-2,5,8,11,14,17,25-heptaazabicyclo[14.10.4]triacontane-3,6,9,12,15,18,26-heptone] (cyclo([Ahp]CF[dW]KT[ξC]); disulfide 2-7) | 1.2 nM | 1000 nM | 0.07 nM
CSCC[C@H](NC(=O)[C@H](C)NC(=O)[C@@H]1CCCN1C(=O)[C@H](CC(N)=O)NC(=O)[C@H](CO)NC(=O)[C@H](CC(N)=O)NC(=O)[C@H](C)NC(=O)[C@@H](N)CO)C(=O)N[C@@H](C)C(=O)N1CCC[C@H]1C(=O)N[C@@H](CCCNC(=N)N)C(=O)N[C@@H](CCC(=O)O)C(=O)N[C@@H](CCCNC(=N)N)C(=O)N[C@@H](CCCCN)C(=O)N[C@@H](C)C(=O)NCC(=O)N[C@H]1CSSC[C@@H](C(=O)O)NC(=O)[C@H](CO)NC(=O)[C@H]([C@@H](C)O)NC(=O)[C@H](Cc2ccccc2)NC(=O)[C@H]([C@@H](C)O)NC(=O)[C@H](CCCCN)NC(=O)[C@H](Cc2c[nH]c3ccccc23)NC(=O)[C@H](Cc2ccccc2)NC(=O)[C@H](Cc2ccccc2)NC(=O)[C@H](CC(N)=O)NC(=O)[C@H](CCCCN)NC1=O [L-Ser-L-Ala-L-Asn-L-Ser-L-Asn-L-Pro-L-Ala-L-Met-L-Ala-L-Pro-L-Arg-L-Glu-L-Arg-L-Lys-L-Ala-Gly-L-Cys(1)-L-Lys-L-Asn-L-Phe-L-Phe-L-Trp-L-Lys-L-Thr-L-Phe-L-Thr-L-Ser-L-Cys(1)-OH] | – | 0.28 nM | –
CC(C)[C@@H]1NC(=O)[C@H](CCCCN)NC(=O)[C@@H](Cc2c[nH]c3ccccc23)NC(=O)[C@H](Cc2ccc(O)cc2)NC(=O)[C@@H](NC(=O)[C@H](N)Cc2ccc3ccccc3c2)CSSC[C@@H](C(=O)N[C@H](C(N)=O)[C@@H](C)O)NC1=O [3-(2-Naphtyl)-D-Ala-L-Cys(1)-L-Tyr-D-Trp-L-Lys-L-Val-L-Cys(1)-L-Thr-NH2] | 0.1 nM | – | –
C[C@@H](OCc1ccccc1)[C@@H]1NC(=O)[C@H](CCCCN)NC(=O)[C@@H](Cc2c[nH]c3ccccc23)NC(=O)[C@H](Cc2ccccc2)NC(=O)CCCCCCNC1=O [c[Aha-Phe-D-Trp-Lys-Thr(Bzl)]] (cyclo([Ahp]F[dW]KT(Bn))) | – | 1000 nM | –
CC[C@@H]1NC(=O)[C@H](CCCCN)NC(=O)[C@@H](Cc2c[nH]c3ccccc23)NC(=O)[C@H](Cc2ccc(O)cc2)NC(=O)[C@@H](NC(=O)[C@H](N)Cc2ccccc2)CSSC[C@@H](C(=O)N[C@H](C(N)=O)[C@@H](C)O)NC1=O [D-Phe-L-Cys(1)-L-Tyr-D-Trp-L-Lys-L-Abu-L-Cys(1)-L-Thr-NH2] | 0.18 nM | – | –
CC(C)[C@@H]1NC(=O)[C@H](CCCCN)NC(=O)[C@@H](Cc2c[nH]c3ccccc23)NC(=O)[C@H](Cc2ccc(O)cc2)NC(=O)[C@H](C)N(C)C(=O)[C@H](Cc2ccccc2)NC1=O [CAS_3086456] | – | 1000 nM | –

Second part, the compound after the results:

Ki [1] | Ki [2] | Ki [3] | Structure (SMILES)
6.16 nM | 1000 nM | – | CC[C@@H]1NC(=O)[C@H](CCCCN)NC(=O)[C@@H](Cc2c[nH]c3ccccc23)NC(=O)[C@H](Cc2ccc(O)cc2)NC(=O)[C@H](C)N(C)C(=O)[C@H](Cc2ccccc2)NC1=O [BIM-23027] (cyclo([Abu]F[NMeA]Y[dW]K))
– | 43.6 nM | – | C[C@@H](O)[C@@H]1NC(=O)[C@H](CCCCN)NC(=O)[C@@H](Cc2c[nH]c3ccccc23)NC(=O)[C@H](Cc2ccc(Cl)cc2)NC(=O)[C@H](Cc2ccccc2)NC(=O)CCCCCCNC(=O)[C@H](Cc2ccccc2)NC1=O [L-362862] (cyclo([Ahp]F[Phe(4-Cl)][dW]KTF))
1.2 nM | – | – | CC(C)[C@H](NC(=O)[C@H](CCCCN)NC(=O)[C@@H](Cc1c[nH]c2ccccc12)NC(=O)[C@H](Cc1ccc(O)cc1)NC(=O)[C@H](Cc1ccccc1)NC(=O)[C@@H](N)Cc1ccccc1)C(=O)N[C@@H](Cc1ccccc1)C(=O)N[C@H](C(N)=O)[C@@H](C)O [BIM-23058] (H-FFY[dW]KVFT-NH2)
0.01 nM | 63.1 nM | – | C[C@@H](O)[C@@H]1NC(=O)[C@H](CCCCN)NC(=O)[C@@H](Cc2c[nH]c3ccccc23)NC(=O)[C@H](Cc2c[nH]c3ccccc23)NC(=O)[C@H](Cc2ccccc2)NC(=O)CCCCCCNC(=O)[C@H](Cc2ccccc2)NC1=O [L-362855] (cyclo([Ahp]FW[dW]KTF))
– | 77.6 nM | 0.03 nM | CC(C)[C@H](NC(=O)[C@H](CCCCN)NC(=O)[C@@H](Cc1c[nH]c2ccccc12)NC(=O)[C@H](Cc1ccc(O)cc1)NC(=O)[C@H](Cc1ccccc1)NC(=O)[C@H](N)Cc1ccccc1)C(=O)N[C@@H](Cc1ccccc1)C(=O)N[C@H](C(N)=O)[C@@H](C)O [BIM-23058] (H-[dF]FY[dW]KVFT-NH2)
4.67 nM | – | – | C[C@H](O)[C@@H]1NC(=O)C(CCCCN)NC(=O)[C@@H](Cc2c[nH]c3ccccc23)NC(=O)C(Cc2ccccc2)NC(=O)C(Cc2ccccc2)NC(=O)C(CC(N)=O)NC(=O)C(CCCCN)NC(=O)CCCCC[C@H](C(=O)O)NC(=O)[C@@H](CO)NC(=O)[C@H]([C@H](C)O)NC(=O)[C@@H](Cc2ccc(O)cc2)NC1=O (stereo not given in full) [CGP-23996]
0.46 nM | – | – | C[C@@H](O)[C@@H]1NC(=O)[C@H](CCCCN)NC(=O)[C@@H](Cc2c[nH]c3ccccc23)NC(=O)[C@H](Cc2ccccc2)NC(=O)[C@H](Cc2ccc(Cl)cc2)NC(=O)CCCCCCNC(=O)[C@H](Cc2ccccc2)NC1=O [L-362862] (cyclo([Ahp][Phe(4-Cl)]F[dW]KTF))
